From the NIST ThermoML archive (doi:10.1016/j.jct.2003.11.007)

Experiments:
[1] = xn = mol fraction of the nth substance listed; details: 101.3 kPa, Liquid
[2] = 101.33 kPa, Liquid

CCCCCCCCCCCC [dodecane] + COC(=O)OC
[1]
Details	mass density [kg/m3]
288.15 K, x2 = 0.1	763.29
288.15 K, x2 = 0.1984	775.97
288.15 K, x2 = 0.2519	783.82
288.15 K, x2 = 0.2998	791.48
288.15 K, x2 = 0.3943	808.72
288.15 K, x2 = 0.9498	1031.65
293.15 K, x2 = 0.0994	759.42
293.15 K, x2 = 0.2008	772.33
293.15 K, x2 = 0.2474	779.08
293.15 K, x2 = 0.2967	786.85
293.15 K, x2 = 0.3962	804.76
293.15 K, x2 = 0.9006	989.35
293.15 K, x2 = 0.9507	1026.33
298.15 K, x2 = 0.1015	755.81
298.15 K, x2 = 0.1968	767.75
298.15 K, x2 = 0.2518	775.63
298.15 K, x2 = 0.3057	784.12
298.15 K, x2 = 0.4019	801.57
298.15 K, x2 = 0.4976	822.41
298.15 K, x2 = 0.5975	849.03
298.15 K, x2 = 0.7026	884.3
298.15 K, x2 = 0.7991	925.9
298.15 K, x2 = 0.9011	984.3
298.15 K, x2 = 0.9512	1020.8
303.15 K, x2 = 0.0995	751.67
303.15 K, x2 = 0.195	763.42
303.15 K, x2 = 0.2498	771.18
303.15 K, x2 = 0.3315	784.26
303.15 K, x2 = 0.3999	796.8
303.15 K, x2 = 0.4997	818.35
303.15 K, x2 = 0.6015	845.3
303.15 K, x2 = 0.6974	876.92
303.15 K, x2 = 0.798	919.35
303.15 K, x2 = 0.8988	976.31
303.15 K, x2 = 0.9497	1012.95
308.15 K, x2 = 0.0998	747.85
308.15 K, x2 = 0.1992	759.93
308.15 K, x2 = 0.2486	766.84
308.15 K, x2 = 0.2938	773.75
308.15 K, x2 = 0.4017	792.74
308.15 K, x2 = 0.5014	814.12
308.15 K, x2 = 0.5995	839.81
308.15 K, x2 = 0.6978	871.92
308.15 K, x2 = 0.7983	914.04
308.15 K, x2 = 0.9004	971.25
308.15 K, x2 = 0.9494	1006.38
318.15 K, x2 = 0.1003	740.31
318.15 K, x2 = 0.2044	752.75
318.15 K, x2 = 0.251	759.14
318.15 K, x2 = 0.3042	767.18
318.15 K, x2 = 0.401	783.99
318.15 K, x2 = 0.4988	804.44
318.15 K, x2 = 0.6028	831.06
318.15 K, x2 = 0.6973	861.26
318.15 K, x2 = 0.8023	904.51
318.15 K, x2 = 0.8976	956.98
318.15 K, x2 = 0.9497	993.69
328.15 K, x2 = 0.0924	731.92
328.15 K, x2 = 0.2	744.23
328.15 K, x2 = 0.25	750.88
328.15 K, x2 = 0.3	758.18
328.15 K, x2 = 0.4007	775.11
328.15 K, x2 = 0.5003	795.39
328.15 K, x2 = 0.6158	824.8
328.15 K, x2 = 0.7057	853.75
328.15 K, x2 = 0.7855	885.61
328.15 K, x2 = 0.8981	945.23
328.15 K, x2 = 0.9483	979.79

CCOC(=O)OCC [diethyl carbonate]
[2]
Details	mass density [kg/m3]
288.15 K	980.29
293.15 K	974.57
298.15 K	969.07
303.15 K	963.6
308.15 K	957.98
318.15 K	947.67
328.15 K	935.12

CCCCCCCCCCCC [dodecane]
[2]
Details	mass density [kg/m3]
288.15 K	752.44
293.15 K	748.8
298.15 K	745.19
303.15 K	741.57
308.15 K	737.93
318.15 K	730.7
328.15 K	723.32

CCOC(=O)OCC [diethyl carbonate] + CCCCCCCCCCCC
[1]
Details	mass density [kg/m3]
288.15 K, x1 = 0.1242	766.85
288.15 K, x1 = 0.2013	776.91
288.15 K, x1 = 0.2481	783.48
288.15 K, x1 = 0.309	792.61
288.15 K, x1 = 0.4053	808.61
288.15 K, x1 = 0.5069	827.83
288.15 K, x1 = 0.603	848.75
288.15 K, x1 = 0.7026	873.85
288.15 K, x1 = 0.8014	903.1
288.15 K, x1 = 0.8997	937.64
288.15 K, x1 = 0.9501	958.03
293.15 K, x1 = 0.1018	760.24
293.15 K, x1 = 0.2018	772.97
293.15 K, x1 = 0.2513	779.88
293.15 K, x1 = 0.3056	787.96
293.15 K, x1 = 0.4094	805.05
293.15 K, x1 = 0.5064	823.29
293.15 K, x1 = 0.604	844.35
293.15 K, x1 = 0.7024	868.92
293.15 K, x1 = 0.8026	898.28
293.15 K, x1 = 0.9022	933.11
293.15 K, x1 = 0.9498	952.23
298.15 K, x1 = 0.1025	756.57
298.15 K, x1 = 0.2042	769.39
298.15 K, x1 = 0.2522	776.01
298.15 K, x1 = 0.3009	783.17
298.15 K, x1 = 0.4041	799.89
298.15 K, x1 = 0.5027	818.2
298.15 K, x1 = 0.6059	840.28
298.15 K, x1 = 0.7074	865.61
298.15 K, x1 = 0.799	892.28
298.15 K, x1 = 0.8994	926.96
298.15 K, x1 = 0.9513	947.6
303.15 K, x1 = 0.1013	752.68
303.15 K, x1 = 0.2027	765.3
303.15 K, x1 = 0.2521	772.06
303.15 K, x1 = 0.3003	779.07
303.15 K, x1 = 0.4041	795.74
303.15 K, x1 = 0.4993	813.2
303.15 K, x1 = 0.605	835.58
303.15 K, x1 = 0.7035	859.82
303.15 K, x1 = 0.7993	887.45
303.15 K, x1 = 0.8999	921.93
303.15 K, x1 = 0.9508	942.05
308.15 K, x1 = 0.1049	749.28
308.15 K, x1 = 0.2059	761.76
308.15 K, x1 = 0.2441	766.93
308.15 K, x1 = 0.3043	775.59
308.15 K, x1 = 0.4026	791.26
308.15 K, x1 = 0.5062	810.2
308.15 K, x1 = 0.6032	830.59
308.15 K, x1 = 0.7045	855.29
308.15 K, x1 = 0.8015	883.09
308.15 K, x1 = 0.9005	916.79
308.15 K, x1 = 0.9507	936.48
318.15 K, x1 = 0.1041	741.75
318.15 K, x1 = 0.1989	753.22
318.15 K, x1 = 0.2492	759.89
318.15 K, x1 = 0.3079	768.25
318.15 K, x1 = 0.4075	783.98
318.15 K, x1 = 0.5	800.6
318.15 K, x1 = 0.6026	821.73
318.15 K, x1 = 0.7001	845.05
318.15 K, x1 = 0.7995	872.99
318.15 K, x1 = 0.8973	905.76
318.15 K, x1 = 0.9485	925.55
328.15 K, x1 = 0.1023	733.88
328.15 K, x1 = 0.2027	745.71
328.15 K, x1 = 0.2498	751.81
328.15 K, x1 = 0.3042	759.33
328.15 K, x1 = 0.3984	773.69
328.15 K, x1 = 0.5099	793.25
328.15 K, x1 = 0.6045	812.43
328.15 K, x1 = 0.7037	835.73
328.15 K, x1 = 0.7992	862.04
328.15 K, x1 = 0.8987	894.71
328.15 K, x1 = 0.9506	914.36

COC(=O)OC [dimethyl carbonate]
[2]
Details	mass density [kg/m3]
288.15 K	1076.43
293.15 K	1069.95
298.15 K	1063.26
303.15 K	1056.61
308.15 K	1050.01
318.15 K	1036.65
328.15 K	1022.92
